Laboratory results published in patent US20110190237A1, “Macrocyclic Prodrug Compounds Useful as Therapeutics” (NEXGENIX PHARMACEUTICALS, priority 2008, published 2011).
In brackets after ≈: the same amount, converted by molar mass. Like-named read-outs stand apart in the source and are kept apart here.

Legend:
[1] = system: BT474 (breast); assay: Cell proliferation assay (ATPlite), BT474; assay type: cell-based; conditions: read-out: Growth inhibition (IC50)
[2] = system: MDA231 (breast); assay: Cell proliferation assay (ATPlite), MDA231; assay type: cell-based; conditions: 4 days, read-out: Growth inhibition (IC50)
[3] = system: MDA-MB468 (breast); assay: Cell proliferation assay (ATPlite), MDA-MB468; assay type: cell-based; conditions: for IC50: read-out: Growth inhibition (IC50)
[4] = system: N87 (gastric); assay: Cell proliferation assay (ATPlite), N87; assay type: cell-based; conditions: read-out: Growth inhibition (IC50)
[5] = system: K562 (leukemia); assay: Cell proliferation assay (ATPlite), K562; assay type: cell-based; conditions: 4 days, read-out: Growth inhibition (IC50)
[6] = system: MV4;11 (leukemia); assay: Cell proliferation assay (ATPlite), MV4;11; assay type: cell-based; conditions: 4 days, read-out: Growth inhibition (IC50)
[7] = system: HCT116 (colon); assay: Cell proliferation assay (ATPlite), HCT116; assay type: cell-based; conditions: 4 days, read-out: Growth inhibition (IC50)
[8] = system: HCC827 (lung); assay: Cell proliferation assay (ATPlite), HCC827; assay type: cell-based; conditions: 4 days, read-out: Growth inhibition (IC50)
Method: (§1) Cell proliferation assays were performed in various oncology cell lines, including breast cancer (BT474 and MDA-MB468), leukemia (K562 CML and MV4;11 AML), colon (HCT116), prostate cancer (PC-3), Tarceva- and Iressa-resistant non-small cell lung cancer (NSCLC, […] and H1975), gastric cancer (N87) as well as glioblastoma (A172) cell lines. […] Cell viability at day 4 was measured by the amount of ATP present in viable cells using ATPlite assay kit according to manufacturer's protocol (Perkin Elmer, Boston, Mass.). IC50 was calculated by fitting the data using XLfit software.

[9] = system: H1975 (lung); assay: Cell proliferation assay (ATPlite), H1975; assay type: cell-based; conditions: 4 days, read-out: Growth inhibition (IC50)
Method: as §1

[10] = system: A172(glioblastoma); assay: Cell proliferation assay (ATPlite), A172; assay type: cell-based; conditions: 4 days, read-out: Growth inhibition (IC50)
Method: as §1

[11] = biological target: HSP90α (Homo sapiens, UniProt P07900); assay: HSP90α affinity; assay type: binding
[12] = In vitro conversion/stability of prodrug in plasma; assay type: in vitro ADME; conditions: mouse plasma; at 60 minutes
Method: (§2) Hydrolysis of prodrug in vivo was estimated by incubating phosphate prodrugs in vitro with mouse small intestine and liver homogenates, mouse plasma, and artificial gastric fluid. Plasma was freshly collected from nude mice. Liver and intestine homogenates were prepared by adding 3 volume of saline to freshly collected mouse tissues and homogenized using glass homogenizer. Gastric fluid was prepared by adding 80 mL of 1M hydrochloric acid to 800 mL of water and then supplementing with 2.0 g of sodium chloride and 3.2 g of pepsin powder. The final volume of the artificial gastric fluid was adjusted with water to 1000 mL (pH=1.1). […] 100 μL samples were collected at 0, 2, 5, 15, 30 and 60 minutes. 5 volumes methanol containing internal standard was added immediately. For samples from gastric fluid incubation, 1 volume of 0.01 M Sodium hydroxide was added before injection into LC/MS/MS. All samples were analyzed by LC/MS/MS to quantitate the concentration of 1a, 1b and the corresponding parent drugs. The concentration of the parent drugs of 1a and 1b was quantitated using standard curve prepared using each vehicle.
(§3) We then evaluate other prodrug conversion in vitro using tissue homogenates and a mimic of gastric fluid (pepsin solution at pH 1.1).

[13] = In vitro conversion/stability of prodrug in artificial gastric fluid (pepsin solution, pH 1.1); assay type: in vitro ADME; conditions: artificial gastric fluid pH 1.1; at 60 minutes
Method: as §2, §3

[14] = In vitro partition between plasma and cells in mouse whole blood; assay type: in vitro ADME; conditions: for Test article concentration in cellular elements / Test article concentration in plasma: mouse whole blood spiked at 5 μg/mL, 37° C.; for Partition of the test articles between plasma and cells: mouse whole blood, 5 μg/mL
Method: The whole blood was withdrawn from mice via cardio-puncture and placed in EDTA anticoagulant tubes. The test articles were spiked to whole blood at final concentration of 5 μg/mL (at least 2 mL) and incubated at 37° C. 200 μL whole blood was taken at 0 (immediate after incubation), 5 min, 15 min and 30 min and then was centrifuged to separate plasma and cellular elements. Plasma was transferred to clean tubes. 50 μL of plasma and cellular elements were processed by addition of 3 volumes (150 μl) of ice-cold methanol. After centrifugation, the supernatants were subjected to LC-MS/MS analysis of test articles in both plasma and cellular elements.

[15] = Solubility of phosphate prodrugs in organic- and aqueous-based media; assay type: physicochemical; conditions: for solubility: read-out: Maximum observed solubility
Method: Crystalline phosphate drugs 1a and 1b were tested first in several different organic- and aqueous-based media, including water, PBS, ETOH, DMA, CMC, and PG.
The maximum observed solubilities with small lots of crystalline drug in 4-mL glass clear tubes were: […]

[16] = Solubility for oral formulation of PU24FCl; assay type: physicochemical; conditions: in our hands
From the text: More recently, other novel non-natural product Hsp90 inhibitors have been reported (e.g. PU3 and CCT018159; see Chiosis et. al. Bioorg. Med. Chem. Lett. 2002, 10, 3555-3564; Vilenchik et. al. Chem. Biol. 2004, 11, 787-797; Chiosis et. al. WO 0236075, 2002; Drysdale et. al. WO 03/055860 A1, 2003; Wright et. al. Chem. Biol. 2004, 11, 775-785; Dymock et. al. Bioorg. Med. Chem. Lett. 2004, 14, 325-328; Dymock et. al. J. Med. Chem. 2005, 48, 4212-4215. Structure of Hsp90 in complex with PU3 pdb code 1UY6, and with PU24FCl: pdb code 1UYF and Clevenger et. al. Org. Lett. 2004, 6, 4459-4462). […] The 8-benzyladenines such as PU3 were designed to adopt the same C-shaped conformation as geldanamycin (Chiosis et. al. Current Cancer Drug Targets, 2003, 3, 371-376) with the adenine ring pointing to the adenine-binding site (hinge region), and the trimethoxybenzene ring emulating the H-bond accepting nature of the quinone ring of geldanamycin. […]

[17] = system: MCF-7 xenograft tumors; conditions: mice bearing MCF-7 xenograft tumors; intraperitoneally, 200 mg/kg; DMSO/EtOH/phosphate-buffered saline 1:1:1; cited from earlier work
[18] = BT474 (breast), 4 days, cell viability by ATPlite
[19] = MDA-MB468 (breast), 4 days, ATPlite

Row | IC50 [1, 18] [nM] | IC50 [3, 19] [nM] | IC50 [5] [nM] | IC50 [6] [nM] | IC50 [7] [nM] | IC50 [8] [nM] | IC50 [9] [nM] | HSP90α affinity [11] | SMILES | IC50 [2] [nM] | IC50 ([4]; N87 (gastric), 4 days, ATPlite) [nM] | Prodrug intact in plasma [12] | Prodrug intact in artificial gastric fluid [13] | Test article concentration in cellular elements ([14]; 0 min) [ng/mL] | Test article concentration in plasma ([14]; 0 min) [ng/mL] | Test article concentration in cellular elements ([14]; 5 min) [ng/mL] | Test article concentration in plasma ([14]; 5 min) [ng/mL] | Test article concentration in cellular elements ([14]; 15 min) [ng/mL] | Test article concentration in plasma ([14]; 15 min) [ng/mL] | Test article concentration in cellular elements ([14]; 30 min) [ng/mL] | Test article concentration in plasma ([14]; 30 min) [ng/mL] | other results
1 | 7 | 9 | 6 | 3 | 9 | 31 | 25 | 21 nM | O=C1OCC/C=C/CC/C=C/C(=N\OCC(=O)N2CCCCC2)Cc2c(Cl)c(O)cc(O)c21 [1a parent] | 7 | 4 | – | – | – | – | – | – | – | – | – | – | IC50 [10]: 42 nM
2 | 2 | 2 | 4 | 2 | 11 | – | – | 15 nM | O=C1OCC/C=C/CC/C=C/C(=N\OCC(=O)N2CCCCC2)Cc2cc(O)cc(O)c21 [1b parent] | 2 | 1 | – | – | – | – | – | – | – | – | – | – | –
3 | – | – | – | – | – | – | – | – | O=C1OCC/C=C/CC/C=C/C(=N\OCC(=O)N2CCCCC2)Cc2c(Cl)c(OP(=O)(O)O)cc(O)c21 [Compound 1a] | – | – | about 90% | about 70% | 1893.93 | 7988.91 | 1632.69 | 7654.94 | 1655.20 | 8123.27 | 1956.15 | 9680.38 | Partition of the test articles between plasma and cells [14]: The concentration of 1a and 1b in plasma is larger than the nominated concentration in whole blood (5 μg/mL), which indicated that the partition of the test articles was mainly in plasma.; solubility ([15]; 0.5% CMC/0.1% Tween-20/0.45% NaCl): 87.5 mg/mL (≈ 157 mM); solubility ([15]; PBS): 55 mg/mL (≈ 98.8 mM); Solubility in water and PBS compared to the parent drugs [15]: very soluble
4 | 5 | 780 | 48 | 11 | – | 56 | 35 | – | C=CCNC1=C2C[C@@H](C)C[C@H](OC)[C@H](O)[C@@H](C)/C=C(\C)[C@H](OC(N)=O)[C@@H](OC)/C=C\C=C(/C)C(=O)NC(=CC1=O)C2=O [Compound 17AAG, 17-allylamino-17-demethoxygeldanamycin, reference compound] | – | 1 | – | – | – | – | – | – | – | – | – | – | Anti-proliferative activity against MDA-MB468 ([3]; MDA-MB468): significantly less sensitive
5 | – | – | – | – | – | – | – | – | C#CCCCn1c(Cc2cc(OC)c(OC)c(OC)c2Cl)nc2c(N)nc(F)nc21 [PU24FCl] | – | – | – | – | – | – | – | – | – | – | – | – | Solubility for oral formulation and delivery [16]: too insoluble; Tumor growth [17]: significantly repressed tumor growth

Row | SMILES | IC50 [1, 18] [nM] | IC50 [3, 19] [nM] | IC50 [5] [nM] | IC50 [6] [nM] | IC50 [7] [nM] | IC50 [8] [nM] | IC50 [9] [nM] | HSP90α affinity [11] | IC50 [2] [nM] | IC50 ([4]; N87 (gastric), 4 days, ATPlite) [nM] | Prodrug intact in plasma [12] | Prodrug intact in artificial gastric fluid [13] | Test article concentration in cellular elements ([14]; 0 min) [ng/mL] | Test article concentration in plasma ([14]; 0 min) [ng/mL] | Test article concentration in cellular elements ([14]; 5 min) [ng/mL] | Test article concentration in plasma ([14]; 5 min) [ng/mL] | Test article concentration in cellular elements ([14]; 15 min) [ng/mL] | Test article concentration in plasma ([14]; 15 min) [ng/mL] | Test article concentration in cellular elements ([14]; 30 min) [ng/mL] | Test article concentration in plasma ([14]; 30 min) [ng/mL] | other results
6 | O=C1OCC/C=C/CC/C=C/C(=N\OCC(=O)N2CCCCC2)Cc2cc(OP(=O)(O)O)cc(O)c21 [Compound 1b] | – | – | – | – | – | – | – | >10 000 nM | – | – | about 90% | about 70% | 1999.60 | 7119.50 | 1364.01 | 7833.27 | 1070.97 | 7672.71 | 1237.82 | 7409.47 | IC50 ([1]; Homo sapiens, BT-474, 96 h): 14 nM; IC50 ([3]; Homo sapiens, MDA-MB-468, 96 h): 37 nM; IC50 ([4]; 96 h): 19 nM; Binding to Hsp90 in vitro [11]: does not bind; Partition of the test articles between plasma and cells [14]: The concentration of 1a and 1b in plasma is larger than the nominated concentration in whole blood (5 μg/mL), which indicated that the partition of the test articles was mainly in plasma.; Solubility in water and PBS compared to the parent drugs [15]: very soluble
